One assay has as its target T1, hAGT (Homo sapiens, UniProt P16455).
T1 sequence (P16455 1-207): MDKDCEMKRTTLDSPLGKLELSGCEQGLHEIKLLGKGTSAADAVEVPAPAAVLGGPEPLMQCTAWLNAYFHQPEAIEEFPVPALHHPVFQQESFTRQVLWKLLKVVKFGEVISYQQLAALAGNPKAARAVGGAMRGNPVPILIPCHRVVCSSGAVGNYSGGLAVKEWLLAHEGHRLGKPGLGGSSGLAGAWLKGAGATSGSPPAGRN
Particulars: reaction with hAGT; cited from earlier work.

The target of assay [1] is T2, ^PGEAhAGT-GST (Homo sapiens, UniProt P16455, G160A/N157G/S159E).
T2 sequence (P16455 1-207 N157G/S159E/G160A): T1 sequence (P16455 1-207) with N157G, S159E, G160A
In words: Reactivity with hAGT fusion protein: pre-incubation with compound, then biotinylated O^6-benzylguanine-oligonucleotide, Western Blot (anti-biotin). Format: biochemical. To be noted: 18 pmol protein, 0.2 μL of 5 mM compound in 15 μL 50 mM HEPES pH 7.5, 1 h, then 10 pmol biotinylated oligonucleotide 15 min. On the technique in general: In western blotting, separated proteins are transferred to a membrane and probed.
Protocol: Lane marked “C” (control): The reaction product of ^[…] and the biotinylated O^6-benzylguanine oligonucleotide. […] Damoiseaux et al., ChemBiochem 4: 285-287, 2001) is added, and the reaction is allowed to continue for further 15 min. As a control 18 pmol ^[…] are incubated with 10 pmol of the same biotinylated oligonucleotide in a total volume of 15 μL of 50 mM HEPES pH 7.5 for 15 min without any substrate. Detection of the biotinylated reaction product between ^[…] and the biotinylated oligonucleotide is performed by Western Blotting using an anti-biotin conjugate coupled to HRP (Pierce).

The target in assay [2] is T2, ^PGEAhAGT-GST. In words: Labelling of hAGT fusion protein, Western Blot with anti-fluorescein antibody. The assay is classed as biochemical. Particulars: 18 pmol ^PGEAhAGT-GST, 0.5 nmol compound, 15 μL 50 mM HEPES pH 7.5. The procedure:
Lanes 1 and 2 (two different concentrations) show the reaction product of compound 60 bearing a fluorescein label and a biotin label (a compound of formula 1 wherein L is a plurality of labels) with ^PGEAhAGT-GST.
18 pmol ^PGEAhAGT-GST are incubated with 0.5 nmol 60 in a total volume of 15 μL of 50 mM HEPES pH 7.5. The reaction product is detected by Western Blotting using a goat anti-fluorescein antibody (Rockland) and a HRP conjugated anti-goat antibody (Sigma).

The test system of assay [3] is yeast L40 expressing LexA and B42 fusion proteins of ^3HYhAGT and DHFR. In words: Growth assay of yeast L40 strains on plates lacking histidine (HIS3 reporter, three-hybrid system). The assay is classed as cell-based. Particulars: for Growth rate: plates lacking histidine. How it is done:
Pairs of plasmids encoding LexA-^3HYhAGT and B42-DHFR fusion proteins are transformed into the yeast strain L40 in which the reconstitution of functional LexA-B42 transcription factor leads to transcription of the reporter genes HIS3 and lacZ. It is tested if the expression of different combinations of fusion protein in the presence of either 78 or 79 complemented the histidine auxotrophy of the yeast L40 (Table 1). […] No growth is observed in the absence of 78 or 79.
In principal, the reconstitution of functional transcription factor through benzyl guanine 78 and 79 is independent of which ligand-binding protein is fused to LexA and which to B42. To verify this assumption the growth of yeast L40 co-expressing LexA-DHFR and B42-^3HYhAGT on plates lacking histidine but containing compounds 78 or 79 is examined.

Assay [4] has as its system yeast strain L40 expressing LexA and B42 fusion proteins of ^3HYhAGT and DHFR. In words: Quantitative β-galactosidase assay using ONPG (lacZ reporter) in yeast L40. Format: cell-based. To be noted: 1 μM, cell extracts of liquid cultures. How it is done:
The activation of transcription of the lacZ reporter gene by the benzyl guanine based compounds 78 and 79 in the yeast strain L40 expressing different combinations of LexA and B42 fusion proteins is examined (Table 2). In this assay, the activity of the product of the lacZ gene, β-galactosidase, is determined by measuring the hydrolysis rate of the chromogenic substrate o-nitrophenyl-β-D-galactopyranoside (ONPG) in cell extracts of liquid cultures.

The next assay addresses T3, GST-^3HYhAGT (Homo sapiens, UniProt P16455, A127T/K125A/N157G/R128A/S159E).
T3 construct: made in house; host or cells: E. coli
T3 sequence (P16455 1-207 K125A/A127T/R128A/N157G/S159E): T1 sequence (P16455 1-207) with K125A, A127T, R128A, N157G, S159E
In words: In vitro reactivity against GST-^3HYhAGT followed by Western Blotting with anti-methotrexate antibody. Format: biochemical. The procedure:
GST-^3HYhAGT is incubated with an excess of 78 or 79 and the reaction is followed by Western Blotting using an anti-methotrexate antibody. […] Accordingly, at concentrations of 78 of 1 μM and at an excess of 78 over ^3HYhAGT (pseudo first-order conditions), 50% of the protein is labelled in less than 10 min.
For the construction of hAGT fusion proteins, preferably the mutant Asn157Gly Ser159Glu is used. […] The rationale behind the introduction of these mutations is to minimize the interaction of hAGT fusion proteins with DNA in the three-hybrid system. The resulting hAGT mutant carrying the five mutations described above is abbreviated as ^3HYhAGT.

The mark [5] stands for this setting: co-expression of LexA-DHFR and B42-^3HYhAGT.
The mark [6] stands for this setting: co-expression of LexA-^3HYhAGT and B42-DHFR.

The structures appear in SMILES notation. Positions count from the first letter of the chain named.

In the case of `Nc1nc(OCc2ccccc2)c2nc[nH]c2n1` [O^6-benzylguanine], the “second order rate constant” value on hAGT is given as “approximately 10^3 sec^−1 M^−1”.

With `NCCOCCOCCOCCn1cc(COc2nc(N)nc3[nH]cnc23)nn1` [compound 11, O^6-(1-[11-Amino-3,6,9-trioxaundecyl]-1,2,3-triazolyl-4-methyl)guanine], the “reaction of ^PGEAhAGT-GST with biotinylated oligonucleotide after first reacting with the compound” value at ^PGEAhAGT-GST [1] is recorded as “no further reaction with biotinylated oligonucleotide is observed”.

In the case of `Nc1nc(OCc2ccc(COCCOCCOCCOCCNC(=O)C(CCCCNC(=O)CCCCCNC(=O)c3ccc(-c4c5ccc(=O)cc-5oc5cc(O)ccc45)c(C(=O)O)c3)NC(=O)CCCCCNC(=O)CCCC[C@H]3SC[C@H]4NC(=O)N[C@H]43)cc2)c2nc[nH]c2n1` (stereo partly drawn) [compound 60, O^6-Benzylguanine-PEG-amino-α-N-(biotinyl-6-aminocaproyl)-ε-N-(6-[fluorescein-5-carbonyl]-aminocaproyl)-lysine], the “substrate for hAGT (reaction product detected by Western Blotting)” value on ^PGEAhAGT-GST [2] is “efficient substrate for hAGT”.

Regarding `CN(Cc1cnc2nc(N)nc(N)c2n1)c1ccc(C(=O)N[C@@H](CCC(=O)NCCCCCCCCCCCC(=O)NCc2ccc(COc3nc(N)nc4[nH]cnc34)cc2)C(=O)O)cc1` [compound 78], the Growth rate result in assay [3] (LexA-DHFR/ B42-^3HYhAGT, 1 μM) is “++ (detection of colonies within 3 days)”; in assay [3] (LexA-^3HYhAGT/ B42-DHFR, 1 μM), “+++ (detection of colonies within 2 days)”. The “growth of yeast L40 on plates lacking histidine (in words)” value was “growth dependent on compounds 78 or 79 is observed” in assay [3] (setting [5]) and “allows yeast L40 to grow on plates lacking histidine” in assay [3] (setting [6]). For the same compound, the ONPG hydrolysis in assay [4] (LexA-DHFR/ B42-^3HYhAGT) is reported as 28 nM of o-nitrophenol formed per min per mg total protein; in assay [4] (LexA-^3HYhAGT/ B42-DHFR) it was 865 nM of o-nitrophenol formed per min per mg total protein. In addition, the “time in which 50% of the protein is labelled” value on GST-^3HYhAGT (1 μM 78, excess over ^3HYhAGT, pseudo first-order conditions) is “less than 10 min”. Also, the kinact/KI at GST-^3HYhAGT (GST-^3HYhAGT incubated with an excess of compound, read-out: second-order rate constant) is around 1500 M⁻¹ s⁻¹.

As to `CN(Cc1cnc2nc(N)nc(N)c2n1)c1ccc(C(=O)NC(CCC(=O)NCCOCCOCCOCCOCc2ccc(COc3nc(N)nc4nc[nH]c34)cc2)C(=O)O)cc1` (stereo not drawn) [compound 79, O^6-4-[13-N-(4-{4-[N-(2,4-Diamino-6-pteridinylmethyl)-methylamino]-benzoyl-amino}-4-carboxybutanoyl)-amino-2,5,8,11-tetraoxatridecyl]-benzyl guanine], the Growth rate entry in assay [3] (LexA-DHFR/ B42-^3HYhAGT, 10 μM) is listed as “++ (detection of colonies within 3 days)”; in assay [3] (LexA-^3HYhAGT/ B42-DHFR, 10 μM) it was “+++ (detection of colonies within 2 days)”. The “growth of yeast L40 on plates lacking histidine (in words)” value is listed as “growth dependent on compounds 78 or 79 is observed” in assay [3] (setting [5]) and “allows yeast L40 to grow on plates lacking histidine” in assay [3] (setting [6]). Also, the ONPG hydrolysis in assay [4] (LexA-DHFR/ B42-^3HYhAGT) is recorded as 24 nM of o-nitrophenol formed per min per mg total protein; in assay [4] (LexA-^3HYhAGT/ B42-DHFR), 63 nM of o-nitrophenol formed per min per mg total protein. Moreover, the second-order rate constant on GST-^3HYhAGT (GST-^3HYhAGT incubated with an excess of compound) is reported as around 900 sec^−1M^−1.

The values above are taken from patent publication US7799524B2, “Substrates for O6-alkylguanina-DNA alkyltransferase” (Ecole Polytechnique Ferdeale de Lausanne, priority 2002, dated 2010).
